Laboratory results from US4039574A, “13-Hydroxy-15-deoxy-prostaglandins” (American Cyanamid Company, priority 1975, dated 1977).

Tested on: basal gastric acid secretion
Test: Inhibition of Gastric Acid Secretion in the Acute Gastric Fistula Rat (basal gastric acid secretion)
Type: in vivo, Female Sprague-Dawley rats
Conditions: 10 mg./kg., vs concurrent vehicle control

## CCCCCCCC(O)[C@@H]1CCC(=O)[C@H]1CCCCCCC(=O)O (relative stereo) [trans-2-(6-carboxyhexyl)-3-(1-hydroxyoctyl)cyclopentanone]
Intraduodenal route
  % inhibition of total acid output after 60 minutes: 29%
  % inhibition of total acid output after 120 minutes: 78%

## CCCCCCCC(O)C1C(O)CC(=O)C1CC=CCCCC(=O)O (stereo not drawn) [2α-(6-carboxyhex-2-cis-enyl)-3β-(1-hydroxyoctyl)-4-hydroxycy] [2α-(6-carboxyhex-2-cis-enyl)-3β-(1-hydroxyoctyl)-4-hydroxycyclopentanone]
Intraduodenal route
  % inhibition of total acid output after 60 minutes: 81%
  % inhibition of total acid output after 120 minutes: 20%

## CCCCCCCC(O)C1C(O)CC(=O)C1CC=CCCCC(=O)O (stereo not drawn) [2β-(6-carboxyhex-2-cis-enyl)-3β-(1-hydroxyoctyl)-4-hydroxycy] [2β-(6-carboxyhex-2-cis-enyl)-3β-(1-hydroxyoctyl)-4-hydroxycyclopentanone]
Intraduodenal route
  % inhibition of total acid output after 60 minutes: 100%
  % inhibition of total acid output after 120 minutes: 94%
Oral route of administration
  % inhibition of total acid output after 60 minutes: 1%
  % inhibition of total acid output after 120 minutes: 56%
